Data taken from patent US8772500B2, “TRPV3 modulators” (AbbVie Inc., priority 2011, dated 2014).

Assays:
human TRPV3 = target: T1, human TRPV3 (Homo sapiens, UniProt Q8NET8); experiment: In vitro antagonism of recombinant human TRPV3 activation (FLIPR Tetra calcium assay, 2-APB as agonist); assay type: cell-based; details: HEK293 cells stably expressing human TRPV3; 2-APB 80 μM; range class; read-out: IC50 (reported range)
T1 construct: expressed in transfected cells
T1 sequence (Q8NET8 1-790): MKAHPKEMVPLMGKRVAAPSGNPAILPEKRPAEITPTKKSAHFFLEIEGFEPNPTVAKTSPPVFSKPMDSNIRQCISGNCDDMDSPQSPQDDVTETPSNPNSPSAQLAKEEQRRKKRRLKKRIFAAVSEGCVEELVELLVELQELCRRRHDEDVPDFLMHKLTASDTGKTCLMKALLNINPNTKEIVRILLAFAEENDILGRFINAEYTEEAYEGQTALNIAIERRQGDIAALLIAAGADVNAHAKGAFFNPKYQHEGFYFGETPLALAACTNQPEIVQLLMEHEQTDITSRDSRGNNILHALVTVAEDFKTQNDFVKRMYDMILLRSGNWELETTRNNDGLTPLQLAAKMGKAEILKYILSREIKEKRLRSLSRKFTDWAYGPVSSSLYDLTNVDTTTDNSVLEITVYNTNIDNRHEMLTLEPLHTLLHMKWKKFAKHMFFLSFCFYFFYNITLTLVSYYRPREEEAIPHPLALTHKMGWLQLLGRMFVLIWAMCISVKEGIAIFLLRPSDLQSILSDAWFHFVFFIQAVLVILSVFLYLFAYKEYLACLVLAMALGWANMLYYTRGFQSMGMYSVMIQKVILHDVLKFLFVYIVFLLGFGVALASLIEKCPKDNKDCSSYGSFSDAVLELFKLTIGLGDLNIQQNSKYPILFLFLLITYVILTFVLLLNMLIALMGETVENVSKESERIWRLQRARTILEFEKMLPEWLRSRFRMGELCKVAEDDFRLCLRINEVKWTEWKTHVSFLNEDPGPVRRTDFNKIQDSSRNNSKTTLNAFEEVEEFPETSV
In short: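 Readout is FLIPR fluorescence, max minus min as percent of uninhibited 2-APB response, giving IC50 (usually mean of ≥2 runs). Stable human TRPV3 HEK293 cells, Calcium-4 dye-loaded, got test compound then, three minutes later, 80 μM 2-APB (EC80); run length 10 min.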

[1] = In vitro rat microsomal stability assay; assay type: in vitro ADME, rat (Sprague-Dawley); details: Sprague-Dawley, rat, 0.5 h, 0.5 μM, pH 7.4
In short: (§1)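 Liver microsomes: Sprague-Dawley rat for rat assay, human for human assay; 37 °C; NADPH cofactor, also spiked into time-zero plates.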

[2] = In vitro human microsomal stability assay; assay type: in vitro ADME; details: human, 0.5 h, 0.5 μM, pH 7.4
In short: as §1

SMILES | IC50 (human TRPV3) [nM] | RAT MICROSOMAL STABILITY (% REMAINING AFTER 30 MINUTES) [1] [%] | HUMAN MICROSOMAL STABILITY (% REMAINING AFTER 30 MINUTES) [2] [%]
O[C@H](c1ncccn1)C1(c2ccc(Cl)c(Cl)c2)CCC1 [Example 39, (S)-[1-(3,4-dichlorophenyl)cyclobutyl](pyrimidin-2-yl)methanol] | 501 to 1000 | 11 | 51
O[C@@H](c1ncccn1)C1(c2ccc(Cl)c(Cl)c2)CCC1 [Example 40, (R)-[1-(3,4-dichlorophenyl)cyclobutyl](pyrimidin-2-yl)methanol] | 5100 to 20000 | 5.6 | 68
Cc1ccccc1C(C)C1(C(O)c2ccccn2)CCC1 (stereo not drawn) [Example 45, {1-[1-(2-methylphenyl)ethyl]cyclobutyl}(pyridin-2-yl)methanol] | 1100 to 5000 | 0.02 | 0.03
CC(c1ccc(F)cc1)C1(C(O)c2ccccn2)CCC1 (stereo not drawn) [Example 46, {1-[1-(4-fluorophenyl)ethyl]cyclobutyl}(pyridin-2-yl)methanol] | 5100 to 20000 | 0.23 | 11
CC(c1ccc(Cl)cc1)C1(C(O)c2ccccn2)CCC1 (stereo not drawn) [Example 49, {1-[1-(4-chlorophenyl)ethyl]cyclobutyl}(pyridin-2-yl)methanol] | 1100 to 5000 | 0.13 | 15
CC(c1ccccc1Cl)C1(C(O)c2ccccn2)CCC1 (stereo not drawn) [Example 50, {1-[1-(2-chlorophenyl)ethyl]cyclobutyl}(pyridin-2-yl)methanol] | 1100 to 5000 | 0.18 | 0.08
Cc1ccc(CC2(C(O)c3ccccn3)CCC2)cc1 (stereo not drawn) [Example 52, [1-(4-methylbenzyl)cyclobutyl](pyridin-2-yl)methanol] | 1100 to 5000 | 0.05 | 1.7
OC(c1ccccn1)C1(C2CCc3ccccc32)CCC1 (stereo not drawn) [Example 55, [1-(2,3-dihydro-1H-inden-1-yl)cyclobutyl](pyridin-2-yl)methanol] | 5100 to 20000 | 0.29 | 1.6
OC(c1ccccn1)C1(C2CCCc3ccccc32)CCC1 (stereo not drawn) [Example 56, pyridin-2-yl[1-(1,2,3,4-tetrahydronaphthalen-1-yl)cyclobutyl]methanol] | 1100 to 5000 | 1.1 | 0.42
OC(c1ccccn1)C1(C2CCOc3ccccc32)CCC1 (stereo not drawn) [Example 57, [1-(3,4-dihydro-2H-chromen-4-yl)cyclobutyl](pyridin-2-yl)methanol] | 5100 to 20000 | 10 | 16
OC(c1ccccn1)C1(C(c2ccccc2)C(F)(F)F)CCC1 (stereo not drawn) [Example 58, pyridin-2-yl[1-(2,2,2-trifluoro-1-phenylethyl)cyclobutyl]methanol] | 1100 to 5000 | 33 | 36
OC(c1ccccn1)C1(c2ccc(Cl)c(Cl)c2)CCOCC1 (stereo not drawn) [Example 59, [4-(3,4-dichlorophenyl)tetrahydro-2H-pyran-4-yl](pyridin-2-yl)methanol] | 1100 to 5000 | 12 | 45
OC(c1ccccn1)C1(c2cccc(OC(F)(F)F)c2)CCOCC1 (stereo not drawn) [Example 66, pyridin-2-yl{4-[3-(trifluoromethoxy)phenyl]tetrahydro-2H-pyran-4-yl}-methanol] | 1100 to 5000 | 23 | 31
OC(c1ccccn1)C1(c2ccc(OC(F)(F)F)cc2)CCOCC1 (stereo not drawn) [Example 67, pyridin-2-yl{4-[4-(trifluoromethoxy)phenyl]tetrahydro-2H-pyran-4-yl}-methanol] | 1100 to 5000 | 47 | 58
OC(CC1(c2cccc(C(F)(F)F)c2)CCC1)c1ccccn1 (stereo not drawn) [Example 74, 1-(pyridin-2-yl)-2-{1-[3-(trifluoromethyl)phenyl]cyclobutyl}ethanol] | 50 to 500 | 0.45 | 6.8
OC(CC1(c2ccc(C(F)(F)F)cc2)CCC1)c1ccccn1 (stereo not drawn) [Example 75, 1-(pyridin-2-yl)-2-{1-[4-(trifluoromethyl)phenyl]cyclobutyl}ethanol] | 501 to 1000 | 0.74 | 44
OC(CC1(c2ccc(OC(F)(F)F)cc2)CCC1)c1ccccn1 (stereo not drawn) [Example 76, 1-(pyridin-2-yl)-2-{1-[4-(trifluoromethoxy)phenyl]cyclobutyl}ethanol] | 501 to 1000 | 0.47 | 39
OC(CC1(c2cccc(OC(F)(F)F)c2)CCC1)c1ccccn1 (stereo not drawn) [Example 77, 1-(pyridin-2-yl)-2-{1-[3-(trifluoromethoxy)phenyl]cyclobutyl}ethanol] | 501 to 1000 | 0.94 | 11
OC(c1ccccn1)C1(c2ccc(Cl)c(Cl)c2)CC(F)(F)C1 (stereo not drawn) [Example 82, [1-(3,4-dichlorophenyl)-3,3-difluorocyclobutyl](pyridin-2-yl)methanol] | 501 to 1000 | 16 | 35
OC(c1ccccn1)C1(c2ccc(C(F)(F)F)nc2)CCC1 (stereo not drawn) [Example 85, pyridin-2-yl{1-[6-(trifluoromethyl)pyridin-3-yl]cyclobutyl}methanol] | 5100 to 20000 | 76 | 82
OC(c1ccccn1)C1(c2ccc(C(F)(F)F)cc2)CCCO1 (stereo not drawn) [Example 88, (anti)-pyridin-2-yl{2-[4-(trifluoromethyl)phenyl]tetrahydrofuran-2-yl}-methanol] | 50 to 500 | 7.0 | 38
OC(c1ccccn1)C1(c2ccc(C(F)(F)F)cc2)CCCO1 (stereo not drawn) [Example 89, (syn)-pyridin-2-yl{2-[4-(trifluoromethyl)phenyl]tetrahydrofuran-2-yl}-methanol] | 1100 to 5000 | 4.3 | 70
Cc1ccccc1C1(C(O)c2ccccn2)CCCO1 (stereo not drawn) [Example 90, [2-(2-methylphenyl)tetrahydrofuran-2-yl](pyridin-2-yl)methanol] | 50 to 500 | <0.01 | 35
Cc1cccc(C2(C(O)c3ccccn3)CCCO2)c1 (stereo not drawn) [Example 91, [2-(3-methylphenyl)tetrahydrofuran-2-yl](pyridin-2-yl)methanol] | 50 to 500 | 1.0 | 46
OC(c1ccccn1)C1(c2cccc(OC(F)(F)F)c2)CCCO1 (stereo not drawn) [Example 92, (anti)-pyridin-2-yl{2-[3-(trifluoromethoxy)phenyl]tetrahydrofuran-2-yl}-methanol] | 50 to 500 | 0.23 | 2.7
OC(c1ccccn1)C1(c2cccc(OC(F)(F)F)c2)CCCO1 (stereo not drawn) [Example 93, (syn)-pyridin-2-yl{2-[3-(trifluoromethoxy)phenyl]tetrahydrofuran-2-yl}-methanol] | 501 to 1000 | 0.33 | 12
OC(c1ccccn1)C1(c2ccc(OC(F)(F)F)cc2)CCCO1 (stereo not drawn) [Example 94, (anti)-pyridin-2-yl{2-[4-(trifluoromethoxy)phenyl]tetrahydrofuran-2-yl}-methanol] | 50 to 500 | 3.8 | 55
